# Data: patent US20170055529A1, “BROAD SPECTRUM WEED CONTROL IN FLOODED RICE BY IN-WATER APPLICATION OF AUXIN HERBICIDES” (priority 2015, published 2017)
# Key:
# Assay type in all cases: in vivo
# [1] = tested on: LEFCH = Leptochloa chinensis (Chinese sprangletop); assay: Field trial in-water herbicidal efficacy
# Procedure: (§1) Field trials were conducted in rice using standard herbicide small plot research methodology. Plot size was 2 square meters (m^2) using 1.6 meter (m) diameter rings placed into the rice paddy soil with capability for flooding to maintain good rice cultural practices and rice growing conditions. There were 3 replicates per treatment. Rice was Japonica type that was hand-transplanted into the saturated soil in the rings as per normal cultural practices. The transplanted rice crop was grown using normal cultural practices for fertilization, watering, flooding and maintenance to ensure good growth of the crop and the weeds under transplanted rice conditions in Taiwan.
# (§2) Treatments were applied by mixing the treatments with deionized water just prior to water-injection application by hand to multiple sides in the ring plots. For each 2 m^2 plot, 50 mL deionized water was mixed with the appropriate formulated product amounts to treat 2 m^2 to achieve the desired application rates based on unit area of application (hectare). Ring plot water depth was kept at 3 to 7 cm deep before and after water-injection application.
# (§3) The rice and weeds were evaluated at 28 days after application (DAA). Triclopyr triethylammonium (as Garlon® 3 A, 360 g ae/L); fluroxypyr methylheptyl ester (meptyl or MHE, as Starane® Ultra, 333 g ae/L); 2,4-dichlorophenoxyacetic acid dimethylammonium (2,4-D AMINE, 400 g ae/L SL); penoxsulam (as Grasp® SC, 240 g ai/L); and bensulfuron-methyl (as LONDAX® 10% WAY WP) were used.
# (§4) The treated and control plots were rated at 28 days after application. Ratings were based on percent (%) visual weed control, where 0 corresponds to no control and 100 corresponds to complete control.
# [2] = tested on: MOOVA = Monochoria vaginalis (monochoria); assay: Field trial in-water herbicidal efficacy
# Procedure: as §1, §2, §3, §4
# [3] = tested on: CYPDI = Cyperus difformis (small-flower flatsedge); assay: Field trial in-water herbicidal efficacy
# Procedure: as §1, §2, §3, §4
# [4] = tested on: SCPJU = Schoenoplectus juncoides (Japanese bulrush); assay: Field trial in-water herbicidal efficacy
# Procedure: as §1, §2, §3, §4
# [5] = tested on: ECHCG = Echinochloa crus-galli (barnyardgrass); assay: Field trial in-water herbicidal efficacy
# Procedure: as §1, §2, §3, §4
# [6] = tested on: MOOVA = Monochoria vaginalis (monochoria); assay: Greenhouse in-water herbicidal activity (large pots); conditions: for Percent (%) Visual Injury Ratings - 16 DAA, MOOVA / Percent (%) Visual Injury Ratings - 22 DAA, MOOVA: greenhouse large pots; for pest or weed control at 280 g/ha / pest or weed control at 560 g/ha / pest or weed control at 1120 g/ha: Pontederia vaginalis, 744 h, read-out: Percent (%) Visual Injury Ratings - 31 DAA, MOOVA
# Procedure: (§5) Weed seeds or nutlets of the desired test plant species were planted in puddled soil (mud) prepared by mixing shredded topsoil and deionized (DI) water in a 1:1 ratio in a standard cement mixer. […] Osmocote® (17:6:10 N:P:K; 0.5 teaspoon) was added to the bottom of a container. The container is a high-density polyethylene (HDPE) round container (4.163 L (1.1 gallon), 15 cm high×20.55 cm diameter; for treatment purposes, the surface area is calculated as 331 cm^2 with 1 hectare equivalent to 10^8 cm^2). The mud mixture (2,750 mL) was added to the container filling it half full. Stakes were placed horizontally in each container to create separate areas for which to plant each different plant species. Water was added on a regular basis to maintain the paddy flood, and supplemental lighting was provided with overhead metal halide 1000-Watt lamps as necessary.
# (§6) Once the plants had reached the proper size (the growth stage of the various species ranged from 2 to 4 leaves), the containers were flooded with city water to a depth of 3 cm submerging the plants 80-100%. The outside of each container was measured and marked at a 3-cm line with a black permanent marker to eliminate water level variability during the trial period. Water was added daily to maintain this water depth. Triclopyr triethylammonium (as Garlon® 3 A, 360 g ae/L); triclopyr butoxyethyl ester (as Garlon® 4, 480 g ae/L); fluroxypyr methylheptyl ester (meptyl or MHE, as Starane® Ultra, 333 g ae/L); fluroxypyr acid (850 grams acid equivalent per kilogram (g ae/kg)); 2,4-dichlorophenoxyacetic acid dimethylammonium (2,4-D DMA, as Weedar® 64 EC, 456 g ae/L); 2,4-dichlorophenoxyacetic acid 2-ethylhexyl ester (2,4-D 2-EHE, as Agri Star®, 456 g ae/L); clopyralid olamine (as Stinger®, 360 g ae/L); and penoxsulam (as Grasp® SC, 240 g ai/L) were used. Each herbicide treatment for each pot was mixed in water (80 mL) and applied directly into the paddy water at rates adjusted to the surface area. The dry formulations were pre-weighed based on the rate of the active ingredient to be applied on a per unit area basis, placed in 30 mL vials, and capped. Granules were spread onto the top of the water in each pot and dispersed throughout the water. Treatments were replicated 3 times.
# (§7) The treated plants and control plants were placed in a greenhouse as described above and water was added as needed to maintain a flood depth of 3 cm. […]
# [7] = tested on: ECHCG = Echinochloa crus-galli (barnyardgrass); assay: as above; conditions: 744 h, read-out: Percent (%) Visual Injury Ratings - 31 DAA, ECHCG
# Procedure: as §5, §6, §7
# [8] = tested on: ORYSP = Oryza sativa Japonica (transplanted paddy rice); assay: Field trial in-water application, crop tolerance
# Procedure: as §1, §2, §3, §4
# [9] = tested on: ORYSP = Oryza sativa (transplanted paddy rice); assay: Greenhouse in-water application (large pots), crop injury
# Procedure: as §5, §6, §7
SMILES,"Percent (%) Visual Injury Ratings - 28 DAA, LEFCH ([1]; 140 g ae/ha in-water 10 DAT)","Percent (%) Visual Injury Ratings - 28 DAA, LEFCH ([1]; 280 g ae/ha in-water 10 DAT)","Percent (%) Visual Injury Ratings - 28 DAA, LEFCH ([1]; 560 g ae/ha in-water 10 DAT)","Percent (%) Visual Injury Ratings - 28 DAA, MOOVA ([2]; 140 g ae/ha in-water 10 DAT)","Percent (%) Visual Injury Ratings - 28 DAA, MOOVA ([2]; 280 g ae/ha in-water 10 DAT)","Percent (%) Visual Injury Ratings - 28 DAA, MOOVA ([2]; 560 g ae/ha in-water 10 DAT)","Percent (%) Visual Injury Ratings - 28 DAA, CYPDI ([3]; 140 g ae/ha in-water 10 DAT)","Percent (%) Visual Injury Ratings - 28 DAA, CYPDI ([3]; 280 g ae/ha in-water 10 DAT)","Percent (%) Visual Injury Ratings - 28 DAA, CYPDI ([3]; 560 g ae/ha in-water 10 DAT)","Percent (%) Visual Injury Ratings - 28 DAA, SCPJU ([4]; 140 g ae/ha in-water 10 DAT)","Percent (%) Visual Injury Ratings - 28 DAA, SCPJU ([4]; 280 g ae/ha in-water 10 DAT)","Percent (%) Visual Injury Ratings - 28 DAA, SCPJU ([4]; 560 g ae/ha in-water 10 DAT)","Percent (%) Visual Injury Ratings - 28 DAA, ECHCG ([5]; 140 g ae/ha in-water 10 DAT)","Percent (%) Visual Injury Ratings - 28 DAA, ECHCG ([5]; 280 g ae/ha in-water 10 DAT)","Percent (%) Visual Injury Ratings - 28 DAA, ECHCG ([5]; 560 g ae/ha in-water 10 DAT)","Percent (%) Visual Injury Ratings - 16 DAA, MOOVA ([6]; 35 g ae/ha)","Percent (%) Visual Injury Ratings - 22 DAA, MOOVA ([6]; 35 g ae/ha)","Percent (%) Visual Injury Ratings - 16 DAA, MOOVA ([6]; 70 g ae/ha)","Percent (%) Visual Injury Ratings - 22 DAA, MOOVA ([6]; 70 g ae/ha)","Percent (%) Visual Injury Ratings - 16 DAA, MOOVA ([6]; 140 g ae/ha)",also measured
"O=C(O)COc1ccc(Cl)cc1Cl [2,4-D DMA (Weedar ® 64), dimethylammonium 2-(2,4-dichlorophenoxy)acetate]",0.0%,0.0%,0.0%,0.0%,6.7%,93.3%,0.0%,94.3%,100.0%,10.0%,90.0%,100.0%,0.0%,0.0%,0.0%,98%,84%,90%,72%,87%,"Percent (%) Visual Injury Ratings - 22 DAA, MOOVA ([6]; 140 g ae/ha): 88%; Percent (%) Visual Injury Ratings - 16 DAA, MOOVA ([6]; 280 g ae/ha): 89%; Percent (%) Visual Injury Ratings - 22 DAA, MOOVA ([6]; 280 g ae/ha): 98%; pest or weed control at 280 g/ha [6]: 100%; pest or weed control at 560 g/ha [6]: 100%; pest or weed control at 1120 g/ha [6]: 100%; pest or weed control at 280 g/ha [7]: 30%; pest or weed control at 560 g/ha [7]: 38%; pest or weed control at 1120 g/ha [7]: 65%; Percent (%) Visual Injury Ratings - 28 DAA, ORYSP ([8]; 140 g ae/ha in-water 10 DAT): 0%; Percent (%) Visual Injury Ratings - 28 DAA, ORYSP ([8]; 280 g ae/ha in-water 10 DAT): 0%; Percent (%) Visual Injury Ratings - 28 DAA, ORYSP ([8]; 560 g ae/ha in-water 10 DAT): 0%; Percent (%) Visual Injury Ratings - 31 DAA, ORYSP ([9]; 280 g ae/ha in-water): 0%; Percent (%) Visual Injury Ratings - 31 DAA, ORYSP ([9]; 560 g ae/ha in-water): 3%; Percent (%) Visual Injury Ratings - 31 DAA, ORYSP ([9]; 1120 g ae/ha in-water): 4%"
"O=C(O)COc1nc(Cl)c(Cl)cc1Cl [Triclopyr triethanolamine (Garlon ® 3A), triethylammonium 2[(3,5,6-trichloro-2-pyridinyl)oxy]acetate]",0.0%,0.0%,0.0%,0.0%,0.0%,0.0%,0.0%,0.0%,0.0%,0.0%,0.0%,0.0%,0.0%,0.0%,0.0%,84%,92%,89%,89%,78%,"Percent (%) Visual Injury Ratings - 22 DAA, MOOVA ([6]; 140 g ae/ha): 82%; Percent (%) Visual Injury Ratings - 16 DAA, MOOVA ([6]; 280 g ae/ha): 98%; Percent (%) Visual Injury Ratings - 22 DAA, MOOVA ([6]; 280 g ae/ha): 100%; pest or weed control at 280 g/ha [6]: 100%; pest or weed control at 560 g/ha [6]: 100%; pest or weed control at 1120 g/ha [6]: 100%; pest or weed control at 280 g/ha [7]: 65%; pest or weed control at 560 g/ha [7]: 75%; pest or weed control at 1120 g/ha [7]: 89%; Percent (%) Visual Injury Ratings - 28 DAA, ORYSP ([8]; 140 g ae/ha in-water 10 DAT): 0%; Percent (%) Visual Injury Ratings - 28 DAA, ORYSP ([8]; 280 g ae/ha in-water 10 DAT): 0%; Percent (%) Visual Injury Ratings - 28 DAA, ORYSP ([8]; 560 g ae/ha in-water 10 DAT): 0%; Percent (%) Visual Injury Ratings - 31 DAA, ORYSP ([9]; 280 g ae/ha in-water): 1%; Percent (%) Visual Injury Ratings - 31 DAA, ORYSP ([9]; 560 g ae/ha in-water): 5%; Percent (%) Visual Injury Ratings - 31 DAA, ORYSP ([9]; 1120 g ae/ha in-water): 70%"
